Measurements reported in PubChem BioAssay (NCI).
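Following 48 hours of exposure in 96-well plates, responses at five concentrations were used to interpolate endpoints linearly. Here, GI50 denotes the concentration required for 50% inhibition of growth. TGI: total growth inhibition.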

Legend:
Experiment in all cases: NCI tumour cell line growth inhibition, 48 h
SK-MEL-5 melanoma = system: SK-MEL-5 melanoma
RPMI-8226 leukemia = system: RPMI-8226 leukemia
MOLT-4 leukemia = system: MOLT-4 leukemia
ACHN renal = system: ACHN renal
UACC-62 melanoma = system: UACC-62 melanoma
SK-MEL-2 melanoma = system: SK-MEL-2 melanoma
HOP-92 NSCLC = system: HOP-92 NSCLC
NCI/ADR-RES ovarian = system: NCI/ADR-RES ovarian
HT29 colon = system: HT29 colon
OVCAR-3 ovarian = system: OVCAR-3 ovarian
EKVX NSCLC = system: EKVX NSCLC
UACC-257 melanoma = system: UACC-257 melanoma
PC-3 prostate = system: PC-3 prostate
HL-60(TB) leukemia = system: HL-60(TB) leukemia
SF-539 CNS = system: SF-539 CNS
KM12 colon = system: KM12 colon
SK-MEL-28 melanoma = system: SK-MEL-28 melanoma
CAKI-1 renal = system: CAKI-1 renal
OVCAR-4 ovarian = system: OVCAR-4 ovarian
T-47D breast = system: T-47D breast
MALME-3M melanoma = system: MALME-3M melanoma
HCC-2998 colon = system: HCC-2998 colon
IGROV1 ovarian = system: IGROV1 ovarian
MDA-MB-231 breast = system: MDA-MB-231 breast
SF-295 CNS = system: SF-295 CNS
SNB-75 CNS = system: SNB-75 CNS
RXF 393 renal = system: RXF 393 renal
NCI-H460 lung = system: NCI-H460 lung
HCT-15 colon = system: HCT-15 colon
OVCAR-8 ovarian = system: OVCAR-8 ovarian
SK-OV-3 ovarian = system: SK-OV-3 ovarian
A498 renal = system: A498 renal
M14 melanoma = system: M14 melanoma
UO-31 renal = system: UO-31 renal
U251 CNS = system: U251 CNS
786-0 renal = system: 786-0 renal
HS 578T breast = system: HS 578T breast
TK-10 renal = system: TK-10 renal
DU-145 prostate = system: DU-145 prostate
MCF7 breast = system: MCF7 breast
BT-549 breast = system: BT-549 breast
SW-620 colon = system: SW-620 colon
CCRF-CEM leukemia = system: CCRF-CEM leukemia
LOX IMVI melanoma = system: LOX IMVI melanoma
K-562 leukemia = system: K-562 leukemia
HCT-116 colon = system: HCT-116 colon
A549 NSCLC = system: A549 NSCLC
SN12C renal = system: SN12C renal
OVCAR-5 ovarian = system: OVCAR-5 ovarian
NCI-H226 lung = system: NCI-H226 lung
NCI-H23 lung = system: NCI-H23 lung
SNB-19 CNS = system: SNB-19 CNS
NCI-H522 lung = system: NCI-H522 lung
MDA-MB-435 = system: MDA-MB-435
COLO 205 colon = system: COLO 205 colon
HOP-62 NSCLC = system: HOP-62 NSCLC
SF-268 CNS = system: SF-268 CNS

CCCCCCCCCCCCOC1C(C(COC2OC(C3COC(C)(C)O3)C3OC(C)(C)OC23)NC(=O)NS(=O)(=O)c2ccccc2)OC2OC(C)(C)OC21 (centres undefined)
GI50 (SK-MEL-5 melanoma): 2.51 µM | TGI (SK-MEL-5 melanoma): 6.34 µM | GI50 (RPMI-8226 leukemia): 1.95 µM | TGI (RPMI-8226 leukemia): 6.77 µM | GI50 (MOLT-4 leukemia): 0.0149 µM | TGI (MOLT-4 leukemia): 0.12 µM | GI50 (ACHN renal): 4.22 µM | TGI (ACHN renal): 15.2 µM | GI50 (UACC-62 melanoma): 3.27 µM | TGI (UACC-62 melanoma): 13.7 µM | GI50 (SK-MEL-2 melanoma): 3.29 µM | TGI (SK-MEL-2 melanoma): 9.57 µM | GI50 (HOP-92 NSCLC): 2.39 µM | TGI (HOP-92 NSCLC): 8.52 µM | GI50 (NCI/ADR-RES ovarian): 7.18 µM | TGI (NCI/ADR-RES ovarian): 23.6 µM | GI50 (HT29 colon): 4.32 µM | TGI (HT29 colon): 16.4 µM | GI50 (OVCAR-3 ovarian): 2.78 µM | TGI (OVCAR-3 ovarian): 8.39 µM | GI50 (EKVX NSCLC): 3.89 µM | TGI (EKVX NSCLC): 16.8 µM | GI50 (UACC-257 melanoma): 4 µM | TGI (UACC-257 melanoma): 16.5 µM | GI50 (PC-3 prostate): 3.27 µM | TGI (PC-3 prostate): 13.8 µM | GI50 (HL-60(TB) leukemia): 0.406 µM | TGI (HL-60(TB) leukemia): 2.69 µM | GI50 (SF-539 CNS): 2.53 µM | TGI (SF-539 CNS): 6.54 µM | GI50 (KM12 colon): 5.15 µM | TGI (KM12 colon): 31.5 µM | GI50 (SK-MEL-28 melanoma): 9.61 µM | TGI (SK-MEL-28 melanoma): 28 µM | GI50 (CAKI-1 renal): 7.14 µM | TGI (CAKI-1 renal): 20 µM | GI50 (OVCAR-4 ovarian): 8.23 µM | TGI (OVCAR-4 ovarian): 66.5 µM | GI50 (T-47D breast): 8.66 µM | TGI (T-47D breast): 39.5 µM | GI50 (MALME-3M melanoma): 13.7 µM | TGI (MALME-3M melanoma): 41.8 µM | GI50 (HCC-2998 colon): 3.24 µM | TGI (HCC-2998 colon): 12.8 µM | GI50 (IGROV1 ovarian): 2.53 µM | TGI (IGROV1 ovarian): 11.2 µM | GI50 (MDA-MB-231 breast): 9.94 µM | TGI (MDA-MB-231 breast): 24.3 µM | GI50 (SF-295 CNS): 3.52 µM | TGI (SF-295 CNS): 16.6 µM | GI50 (SNB-75 CNS): 11.4 µM | TGI (SNB-75 CNS): 31.6 µM | GI50 (RXF 393 renal): 3.02 µM | TGI (RXF 393 renal): 7.47 µM | GI50 (NCI-H460 lung): 3.04 µM | TGI (NCI-H460 lung): 12.6 µM | GI50 (HCT-15 colon): 3.68 µM | TGI (HCT-15 colon): 15 µM | GI50 (OVCAR-8 ovarian): 3.35 µM | TGI (OVCAR-8 ovarian): 23.9 µM | GI50 (SK-OV-3 ovarian): 13.8 µM | TGI (SK-OV-3 ovarian): 28.1 µM | GI50 (A498 renal): 3.87 µM | TGI (A498 renal): 11.9 µM | GI50 (M14 melanoma): 5.23 µM | TGI (M14 melanoma): 18.9 µM | GI50 (UO-31 renal): 5.16 µM | TGI (UO-31 renal): 19.7 µM | GI50 (U251 CNS): 3.14 µM | TGI (U251 CNS): 9.77 µM | GI50 (786-0 renal): 3.51 µM | TGI (786-0 renal): 11.6 µM | GI50 (HS 578T breast): 2.9 µM | TGI (HS 578T breast): 11.1 µM | GI50 (TK-10 renal): 5.96 µM | TGI (TK-10 renal): 19.6 µM | GI50 (DU-145 prostate): 2.74 µM | TGI (DU-145 prostate): 8.39 µM | GI50 (MCF7 breast): 2.98 µM | TGI (MCF7 breast): 12.9 µM | GI50 (BT-549 breast): 3.61 µM | TGI (BT-549 breast): 13.1 µM | GI50 (SW-620 colon): 5.14 µM | TGI (SW-620 colon): 18.5 µM | GI50 (CCRF-CEM leukemia): 2.34 µM | TGI (CCRF-CEM leukemia): 7.49 µM | GI50 (LOX IMVI melanoma): 5.22 µM | TGI (LOX IMVI melanoma): 19.7 µM | GI50 (K-562 leukemia): 2.57 µM | TGI (K-562 leukemia): 16.1 µM | GI50 (HCT-116 colon): 4.05 µM | TGI (HCT-116 colon): 16.3 µM | GI50 (A549 NSCLC): 4.58 µM | TGI (A549 NSCLC): 27.3 µM | GI50 (SN12C renal): 3.95 µM | TGI (SN12C renal): 15.2 µM | GI50 (OVCAR-5 ovarian): 4.34 µM | TGI (OVCAR-5 ovarian): 13.8 µM | GI50 (NCI-H226 lung): 6 µM | TGI (NCI-H226 lung): 45.8 µM | GI50 (NCI-H23 lung): 4.34 µM | TGI (NCI-H23 lung): 19.3 µM | GI50 (SNB-19 CNS): 9.18 µM | TGI (SNB-19 CNS): 40 µM | GI50 (NCI-H522 lung): 6.56 µM | TGI (NCI-H522 lung): 32.8 µM | GI50 (MDA-MB-435): 4.6 µM | TGI (MDA-MB-435): 21.5 µM | GI50 (COLO 205 colon): 4.37 µM | TGI (COLO 205 colon): 20.7 µM | GI50 (HOP-62 NSCLC): 4.34 µM | TGI (HOP-62 NSCLC): 14.5 µM | GI50 (SF-268 CNS): 4.34 µM | TGI (SF-268 CNS): 19.6 µM

Cc1ccc2nc(-c3ccccc3)c(N=O)n2c1
TGI (SK-MEL-5 melanoma): > 100 µM | TGI (RPMI-8226 leukemia): > 100 µM | TGI (MOLT-4 leukemia): > 100 µM | TGI (ACHN renal): > 100 µM | TGI (UACC-62 melanoma): 49.6 µM | TGI (SK-MEL-2 melanoma): > 100 µM | TGI (HOP-92 NSCLC): > 100 µM | TGI (NCI/ADR-RES ovarian): > 100 µM | TGI (HT29 colon): > 100 µM | TGI (OVCAR-3 ovarian): > 100 µM | TGI (EKVX NSCLC): 79.5 µM | TGI (UACC-257 melanoma): > 100 µM | TGI (PC-3 prostate): > 100 µM | TGI (SF-539 CNS): 92.7 µM | TGI (KM12 colon): > 100 µM | TGI (SK-MEL-28 melanoma): > 100 µM | TGI (CAKI-1 renal): > 100 µM | TGI (OVCAR-4 ovarian): > 100 µM | TGI (T-47D breast): > 100 µM | TGI (MALME-3M melanoma): > 100 µM | TGI (IGROV1 ovarian): > 100 µM | TGI (MDA-MB-231 breast): 73.1 µM | TGI (SF-295 CNS): > 100 µM | TGI (SNB-75 CNS): > 100 µM | TGI (RXF 393 renal): > 100 µM | TGI (NCI-H460 lung): > 100 µM | TGI (HCT-15 colon): > 100 µM | TGI (OVCAR-8 ovarian): > 100 µM | TGI (SK-OV-3 ovarian): > 100 µM | TGI (A498 renal): > 100 µM | TGI (M14 melanoma): > 100 µM | TGI (UO-31 renal): > 100 µM | TGI (U251 CNS): > 100 µM | TGI (786-0 renal): > 100 µM | TGI (HS 578T breast): > 100 µM | TGI (TK-10 renal): > 100 µM | TGI (DU-145 prostate): > 100 µM | TGI (MCF7 breast): > 100 µM | TGI (BT-549 breast): > 100 µM | TGI (SW-620 colon): > 100 µM | TGI (CCRF-CEM leukemia): > 100 µM | TGI (LOX IMVI melanoma): > 100 µM | TGI (K-562 leukemia): > 100 µM | TGI (HCT-116 colon): > 100 µM | TGI (A549 NSCLC): > 100 µM | TGI (SN12C renal): 61 µM | TGI (OVCAR-5 ovarian): > 100 µM | TGI (NCI-H226 lung): > 100 µM | TGI (NCI-H23 lung): > 100 µM | TGI (SNB-19 CNS): > 100 µM | TGI (NCI-H522 lung): > 100 µM | TGI (MDA-MB-435): > 100 µM | TGI (COLO 205 colon): > 100 µM | TGI (HOP-62 NSCLC): > 100 µM | TGI (SF-268 CNS): > 100 µM
